According to PubChem BioAssay AID330 (DTP/NCI, 2004):
“And” between values parts separate entries of the source, which are not always exact repeats. Equal values may be shown once. Toxic doses and inconclusive results are not listed.

Tested on: P388 leukemia ip, CD2F1 mice, survival T/C
Assay: NCI In Vivo Anticancer Drug Screen. Data for tumor model P388 Leukemia (intraperitoneal) in CD2F1 (CDF1) mice
Details: endpoint: median survival time, higher = longer survival
Procedure, shortened: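 Mice carrying the transplanted tumor received test compound or vehicle. Survival was recorded in each group, and the value is the treated-group measurement divided by that of the vehicle-treated control group.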

[1] = dose: 1.25 mg/kg/injection, schedule: Q01DX009 (ip), vehicle: saline
[2] = dose: 2.5 mg/kg/injection, schedule: Q01DX009 (ip), vehicle: saline
[3] = dose: 5.0 mg/kg/injection, schedule: Q01DX009 (ip), vehicle: saline
[4] = dose: 1.56 mg/kg/injection, schedule: Q01DX009 (ip), vehicle: saline with Tween-80
[5] = dose: 6.25 mg/kg/injection, schedule: Q01DX009 (ip), vehicle: saline with Tween-80
[6] = dose: 60.0 mg/kg/injection, schedule: Q01DX005 (ip), vehicle: saline with Tween-80
[7] = dose: 120.0 mg/kg/injection, schedule: Q01DX005 (ip), vehicle: saline with Tween-80
[8] = dose: 50.0 mg/kg/injection, schedule: Q01DX009 (ip), vehicle: saline
[9] = dose: 100.0 mg/kg/injection, schedule: Q01DX009 (ip), vehicle: saline
[10] = dose: 200.0 mg/kg/injection, schedule: Q01DX009 (ip), vehicle: saline
[11] = dose: 50.0 mg/kg/injection, schedule: Q01DX009 (ip), vehicle: Klucel (hydroxypropylcellulose) (HPC)
[12] = dose: 100.0 mg/kg/injection, schedule: Q01DX009 (ip), vehicle: Klucel (hydroxypropylcellulose) (HPC)
[13] = dose: 200.0 mg/kg/injection, schedule: Q01DX009 (ip), vehicle: Klucel (hydroxypropylcellulose) (HPC)
[14] = dose: 50.0 mg/kg/injection, schedule: Q01DX009 (ip), vehicle: saline with Tween-80
[15] = dose: 100.0 mg/kg/injection, schedule: Q01DX009 (ip), vehicle: saline with Tween-80
[16] = dose: 200.0 mg/kg/injection, schedule: Q01DX009 (ip), vehicle: saline with Tween-80
[17] = dose: 240.0 mg/kg/injection, schedule: Q01DX005 (ip), vehicle: saline with Tween-80

CN1CCN(C2=C(Cl)C(=O)c3ccccc3C2=O)CC1
T/C [1]: 100 % of control | T/C [2]: 103 % of control | T/C [3]: 109 % of control

O=C(NC(Cc1c[nH]c2ccccc12)C(=O)O)OCC1c2ccccc2-c2ccccc21 (stereo not drawn)
T/C (dose: 50.0 mg/kg/injection, schedule: Q01DX005 (ip), vehicle: Klucel (hydroxypropylcellulose) (HPC)): 100 % of control | T/C (dose: 100.0 mg/kg/injection, schedule: Q01DX005 (ip), vehicle: Klucel (hydroxypropylcellulose) (HPC)): 95 % of control

O=C(O)c1ccccc1C(=O)c1ccc(CBr)cc1
T/C [4]: 109 % of control | T/C (dose: 3.13 mg/kg/injection, schedule: Q01DX009 (ip), vehicle: saline with Tween-80): 109 % of control | T/C [5]: 109 % of control and 113 % of control | T/C (dose: 6.25 mg/kg/injection, schedule: Q04DX003 (ip), vehicle: saline with Tween-80): 91 % of control | T/C (dose: 12.5 mg/kg/injection, schedule: Q04DX003 (ip), vehicle: saline with Tween-80): 95 % of control | T/C (dose: 25.0 mg/kg/injection, schedule: Q04DX003 (ip), vehicle: saline with Tween-80): 108 % of control

CC(=O)Oc1cc2c3c(c1)-c1c(ccc(OC(C)=O)c1OC(C)=O)CC3NCC2 (stereo not drawn)
T/C (dose: 3.13 mg/kg/injection, schedule: Q04DX003 (ip), vehicle: DMSO): 101 % of control | T/C (dose: 6.25 mg/kg/injection, schedule: Q04DX003 (ip), vehicle: DMSO): 101 % of control | T/C (dose: 12.5 mg/kg/injection, schedule: Q04DX003 (ip), vehicle: DMSO): 103 % of control | T/C (dose: 25.0 mg/kg/injection, schedule: Q04DX003 (ip), vehicle: DMSO): 108 % of control | T/C (dose: 50.0 mg/kg/injection, schedule: Q04DX003 (ip), vehicle: DMSO): 108 % of control | T/C (dose: 100.0 mg/kg/injection, schedule: Q04DX003 (ip), vehicle: DMSO): 99 % of control

CCCC(=O)c1cc(-c2cc(C(=O)CCC)nc(N)n2)nc(N)n1
T/C [6]: 99 % of control | T/C [7]: 107 % of control

CCNC(=O)OCCN(CC)CC
T/C [8]: 103 % of control | T/C [9]: 103 % of control | T/C [10]: 104 % of control

CCN(CC)CC(COC)Oc1cc(C)ccc1C(C)C (stereo not drawn)
T/C (dose: 50.0 mg/kg/injection, schedule: Q04DX003 (ip), vehicle: saline with Tween-80): 104 % of control | T/C (dose: 100.0 mg/kg/injection, schedule: Q04DX003 (ip), vehicle: saline with Tween-80): 95 % of control | T/C (dose: 200.0 mg/kg/injection, schedule: Q04DX003 (ip), vehicle: saline with Tween-80): 109 % of control

CSc1nc(N)c(C(=O)Nc2ccc([N+](=O)[O-])cc2)s1
T/C [11]: 99 % of control | T/C [12]: 99 % of control | T/C [13]: 100 % of control

CCOC(=O)c1cnc2ccccn2c1=O
T/C [8]: 90 % of control | T/C [9]: 88 % of control

COC1CCC(OC2CC(C3(C)CCC4(CC(O)C(C)C(C(C)/C=C(\C)C(=O)C(C)CC(C)C(=O)O)O4)O3)OC3(OC(C4OC(O)(CO)C(C)CC4C)CC3C)C2C)OC1C (stereo not drawn)
T/C (dose: 12.5 micrograms/kg/injection, schedule: Q01DX009 (ip), vehicle: suspension in saline): 106 % of control | T/C (dose: 25.0 micrograms/kg/injection, schedule: Q01DX009 (ip), vehicle: suspension in saline): 108 % of control | T/C (dose: 37.5 micrograms/kg/injection, schedule: Q01DX009 (ip), vehicle: suspension in saline): 114 % of control | T/C (dose: 50.0 micrograms/kg/injection, schedule: Q01DX009 (ip), vehicle: suspension in saline): 108 % of control | T/C (dose: 75.0 micrograms/kg/injection, schedule: Q01DX009 (ip), vehicle: suspension in saline): 109 % of control | T/C (dose: 100.0 micrograms/kg/injection, schedule: Q01DX009 (ip), vehicle: suspension in saline): 100 % of control | T/C (dose: 150.0 micrograms/kg/injection, schedule: Q01DX009 (ip), vehicle: suspension in saline): 100 % of control | T/C (dose: 200.0 micrograms/kg/injection, schedule: Q01DX009 (ip), vehicle: suspension in saline): 107 % of control | T/C (dose: 400.0 micrograms/kg/injection, schedule: Q01DX009 (ip), vehicle: suspension in saline): 104 % of control

CCOP(=O)(CC1OCCCO1)OCC
T/C [8]: 98 % of control | T/C [9]: 100 % of control | T/C [10]: 102 % of control

O=C(O)c1nn(-c2ccccc2)c2c1CSc1ccccc1-2
T/C (dose: 100.0 mg/kg/injection, schedule: Q01DX001 (ip), vehicle: saline with Tween-80): 109 % of control | T/C (dose: 200.0 mg/kg/injection, schedule: Q01DX001 (ip), vehicle: saline with Tween-80): 104 % of control

O=c1oc2nc3ccc(Cl)cc3c(=O)n2c2ccc(Cl)cc12
T/C [11]: 108 % of control | T/C [12]: 118 % of control | T/C [13]: 104 % of control

O=C1NC(=O)C2(CCCc3ccc([N+](=O)[O-])cc32)N1 (stereo not drawn)
T/C [14]: 99 % of control | T/C [15]: 99 % of control | T/C [16]: 97 % of control

O=C(Nc1ccccc1C(F)(F)F)N(CCO)C1CCCCC1
T/C [6]: 103 % of control | T/C [7]: 103 % of control | T/C [17]: 103 % of control

COC12C=C(C(C)(C)C)C(CC1)C1C(=O)c3c(OC(=O)OCc4ccc([N+](=O)[O-])cc4)ccc(O)c3C(=O)C12 (stereo not drawn)
T/C (dose: 30.0 mg/kg/injection, schedule: Q01DX005 (ip), vehicle: saline with Tween-80): 91 % of control | T/C [6]: 86 % of control and 94 % of control | T/C [7]: 91 % of control and 92 % of control | T/C [17]: 100 % of control

O/N=C1\CCC2CCCCC2C1 (stereo not drawn)
T/C [8]: 103 % of control | T/C [9]: 103 % of control | T/C [10]: 104 % of control

COc1cc(=O)[nH]c(-c2ccccc2)c1OC
T/C [6]: 99 % of control | T/C [7]: 99 % of control | T/C [17]: 99 % of control

C=C(C)[Se]c1ccccc1
T/C [14]: 100 % of control and 118 % of control | T/C [15]: 101 % of control and 121 % of control

O=C(Nc1cccc(Cl)c1Cl)Oc1ccc(Cl)cc1C(=O)c1ccccc1
T/C [8]: 94 % of control | T/C [9]: 89 % of control | T/C [10]: 99 % of control

Cc1nc(N)[nH]c(=O)c1CCCN=Cc1ccccc1
T/C (dose: 60.0 mg/kg/injection, schedule: Q01DX005 (ip), vehicle: Klucel (hydroxypropylcellulose) (HPC)): 108 % of control | T/C (dose: 120.0 mg/kg/injection, schedule: Q01DX005 (ip), vehicle: Klucel (hydroxypropylcellulose) (HPC)): 105 % of control | T/C (dose: 240.0 mg/kg/injection, schedule: Q01DX005 (ip), vehicle: Klucel (hydroxypropylcellulose) (HPC)): 96 % of control

O=C1OCCN1/N=C/C=N/N1CCOC1=O
T/C [4]: 95 % of control | T/C (dose: 3.12 mg/kg/injection, schedule: Q01DX009 (ip), vehicle: saline with Tween-80): 95 % of control | T/C [5]: 105 % of control

COC(=O)n1nnc2ncccc21
T/C (dose: 60.0 mg/kg/injection, schedule: Q01DX005 (ip), vehicle: saline): 101 % of control | T/C (dose: 120.0 mg/kg/injection, schedule: Q01DX005 (ip), vehicle: saline): 100 % of control | T/C (dose: 240.0 mg/kg/injection, schedule: Q01DX005 (ip), vehicle: saline): 92 % of control

CCNCc1c(C)[nH]c2ccc(N(C)C)cc2c1=O
T/C [8]: 92 % of control | T/C [9]: 108 % of control

NC(=S)N/N=C/c1ncccc1O
T/C (dose: 25.0 mg/kg/injection, schedule: Q01DX009 (ip), vehicle: saline): 158 % of control | T/C (dose: 50.0 mg/kg/injection, schedule: Q01DX005 (ip), vehicle: saline): 155 % of control | T/C [8]: 151 % of control and 158 % of control | T/C (dose: 100.0 mg/kg/injection, schedule: Q01DX005 (ip), vehicle: saline): 162 % of control | T/C (dose: 100.0 mg/kg/injection, schedule: Q01DX005 (ip), vehicle: suspension in saline): 167 % of control | T/C [9]: 180 % of control | T/C (dose: 200.0 mg/kg/injection, schedule: Q01DX005 (ip), vehicle: saline): 157 % of control | T/C (dose: 200.0 mg/kg/injection, schedule: Q01DX005 (ip), vehicle: suspension in saline): 90 % of control

O=C(CCCBr)c1ccccc1
T/C (dose: 25.0 mg/kg/injection, schedule: Q01DX009 (ip), vehicle: saline with Tween-80): 107 % of control | T/C [14]: 100 % of control | T/C [15]: 107 % of control | T/C [16]: 100 % of control

COc1ccc2nc3ccccc3c(NCCNCCO)c2c1
T/C [1]: 105 % of control | T/C [2]: 105 % of control | T/C [3]: 120 % of control

NS(=O)(=O)c1ccc(N=Cc2cnc3ccccc3c2)cc1
T/C [2]: 100 % of control | T/C [3]: 97 % of control | T/C (dose: 10.0 mg/kg/injection, schedule: Q01DX009 (ip), vehicle: saline): 100 % of control and 91 % of control | T/C (dose: 20.0 mg/kg/injection, schedule: Q01DX009 (ip), vehicle: saline): 93 % of control
